# According to US10000488B2, “Heterocyclic compound” (TAKEDA PHARMACEUTICAL COMPANY LIMITED, priority 2014, dated 2018):
# Key:
# RORγt [1] = target: T1, RORγt (Homo sapiens, UniProt P51449); assay: Jurkat reporter test (human IL-17 ROR response element luciferase reporter, RORγt vector); assay type: cell-based; settings: test compound 3 μM; Jurkat cells; read-out: luminescence level inhibitory rate (%) at test compound 3 μM
# T1 sequence (P51449 1-497 isoform P51449-2): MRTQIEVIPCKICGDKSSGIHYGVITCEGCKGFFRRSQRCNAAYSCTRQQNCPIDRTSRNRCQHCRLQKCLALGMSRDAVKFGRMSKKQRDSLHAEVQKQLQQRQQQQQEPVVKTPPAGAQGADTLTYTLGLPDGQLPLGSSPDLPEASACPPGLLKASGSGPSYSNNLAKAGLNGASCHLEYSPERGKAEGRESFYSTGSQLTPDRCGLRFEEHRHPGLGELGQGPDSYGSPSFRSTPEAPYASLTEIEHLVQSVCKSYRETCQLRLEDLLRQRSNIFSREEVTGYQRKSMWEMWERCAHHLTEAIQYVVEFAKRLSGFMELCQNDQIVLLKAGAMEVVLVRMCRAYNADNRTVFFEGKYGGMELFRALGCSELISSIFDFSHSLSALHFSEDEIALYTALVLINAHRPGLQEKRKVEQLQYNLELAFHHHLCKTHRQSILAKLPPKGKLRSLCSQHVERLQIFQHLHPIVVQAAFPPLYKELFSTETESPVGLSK
# Method in brief: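 Jurkat cells were electroporated (1350 V, 10 ms, 3 pulses) with the reporter constructs and plated in RPMI with 10% lipid-reduced FCS, 10 mM HEPES pH 7.5 and 5 μM lovastatin. After overnight culture with compound, luciferase activity was measured by luminescence following a 10 min room-temperature incubation with Bright-Glo.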
# RORγt [2] = target: T1, RORγt; assay: Cofactor recruitment test (Alpha Screen, biotinylated SRC-1 peptide); assay type: biochemical; settings: read-out: signal value inhibitory rate (%) at test compound 1 μM
# Protocol: Cofactor Recruitment Test
# Cofactor recruitment test was performed by Alpha Screen (Histidine Detection Kit, PerkinElmer) method. First, a test compound was diluted with an assay buffer (50 mM Tris-HCl (pH 7.5), 50 mM KCl, 1 mM DTT, 0.1% BSA) and added to a 384 well plate by 5 μL. […] The mixture was stood in a dark place for 1 hr, and the signal value was measured by Envision (PerkinElmer).
# RORγt [3] = target: T1, RORγt; assay: RORγt binding test using fluorescent-labeled synthetic ligand (TR-FRET); settings: test compound 1 μM; read-out: binding inhibitory rate (%) of fluorescent-labeled synthetic ligand to RORγt at test compound 1 μM
# Method in brief: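 Compound displacement of a fluorescent-labeled synthetic ligand from His-tagged RORγt was read by TR-FRET with a terbium anti-His antibody. Buffer was 20 mM Tris-HCl pH 7.5, 100 mM NaCl, 1 mM DTT and 0.1% BSA, with stocks of 240 nM protein, 12 μM ligand and 8 nM antibody (pre-mix, not final). Incubations were 20 min plus 20 min at room temperature, with excitation at 320 nm, emission at 520 nm and a 100 μs delay.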
Compound,inhibition at 3 µM (RORγt [1]) [%],inhibition at 1 µM (RORγt [2]) [%],inhibition at 1 µM (RORγt [3]) [%]
"CC(C)n1c(=O)n(CC2CC2)c(=O)c2cc(NC(=O)N3CCC[C@@H](NC(=O)c4ccc(C#N)cc4)C3)c(F)cc21 [Example 284, (3R)-3-((4-cyanobenzoyl)amino)-N-(3-(cyclopropylmethyl)-7-fluoro-1-isopropyl-2,4-dioxo-1,2,3,4-tetrahydroquinazolin-6-yl)piperidine-1-carboxamide]",102,112,102
"CC(C)n1c(=O)n(CC2CC2)c(=O)c2cc(NC(=O)N3CCC[C@@H](NC(=O)c4cc(F)ccc4F)C3)c(F)cc21 [Example 287, (3R)-N-(3-(cyclopropylmethyl)-7-fluoro-1-isopropyl-2,4-dioxo-1,2,3,4-tetrahydroquinazolin-6-yl)-3-((2,5-difluorobenzoyl)amino)piperidine-1-carboxamide]",100,111,102
"COc1ccc(C(=O)N[C@@H]2CCCN(C(=O)Nc3cc4c(=O)n(CC5CC5)c(=O)n(C(C)C)c4cc3F)C2)c(F)c1 [Example 291, (3R)-N-(3-(cyclopropylmethyl)-7-fluoro-1-isopropyl-2,4-dioxo-1,2,3,4-tetrahydroquinazolin-6-yl)-3-((2-fluoro-4-methoxybenzoyl)amino)piperidine-1-carboxamide]",101,107,102
"CC(C)n1c(=O)n(CC2CC2)c(=O)c2cc(NC(=O)N3CCC[C@@H](NC(=O)c4ccc(C#N)s4)C3)c(F)cc21 [Example 292, (3R)-3-(((5-cyano-2-thienyl)carbonyl)amino)-N-(3-(cyclopropylmethyl)-7-fluoro-1-isopropyl-2,4-dioxo-1,2,3,4-tetrahydroquinazolin-6-yl)piperidine-1-carboxamide]",101,112,102
"Cc1nc2cc(C(=O)N[C@@H]3CCCN(C(=O)Nc4cc5c(=O)n(CC6CC6)c(=O)n(C(C)C)c5cc4F)C3)ccc2o1 [Example 296, N-((3R)-1-((3-(cyclopropylmethyl)-7-fluoro-1-isopropyl-2,4-dioxo-1,2,3,4-tetrahydroquinazolin-6-yl)carbamoyl)piperidin-3-yl)-2-methyl-1,3-benzoxazole-5-carboxamide]",102,108,102
"COc1ccc2c(c1)C(=O)N([C@@H]1CCCN(C(=O)Nc3cc4c(=O)n(CC5CC5)c(=O)n(C(C)C)c4cc3F)C1)C2 [Example 303, (3R)—N-(3-(cyclopropylmethyl)-7-fluoro-1-isopropyl-2,4-dioxo-1,2,3,4-tetrahydroquinazolin-6-yl)-3-(6-methoxy-1-oxo-1,3-dihydro-2H-isoindol-2-yl)piperidine-1-carboxamide]",102,107,102
"CCNC(=O)OCc1ccc(C(=O)N[C@@H]2CCCN(C(=O)Nc3cc4c(=O)n(CC5CC5)c(=O)n(C(C)C)c4cc3F)C2)cc1 [Example 315, 4-(((3R)-1-((3-(cyclopropylmethyl)-7-fluoro-1-isopropyl-2,4-dioxo-1,2,3,4-tetrahydroquinazolin-6-yl)carbamoyl)piperidin-3-yl)carbamoyl)benzyl ethylcarbamate]",108,94,102
"CC(C)n1c(=O)n(CC2CC2(F)F)c(=O)c2cc(NC(=O)N3CCO[C@@H](C(=O)Nc4ccc(C#N)c(Cl)c4)C3)c(F)cc21 (stereo partly drawn) [Example 331, (2R)—N^2-(3-chloro-4-cyanophenyl)-N^4-(3-((2,2-difluorocyclopropyl)methyl)-7-fluoro-1-isopropyl-2,4-dioxo-1,2,3,4-tetrahydroquinazolin-6-yl)morpholine-2,4-dicarboxamide]",103,109,102
"CC(C)n1c(=O)n(CC2CCCO2)c(=O)c2cc(NC(=O)N3CCO[C@@H](C(=O)Nc4ccc(C#N)c(Cl)c4)C3)c(F)cc21 (stereo partly drawn) [Example 333, (2R)—N^2-(3-chloro-4-cyanophenyl)-N^4-(7-fluoro-1-isopropyl-2,4-dioxo-3-(tetrahydrofuran-2-ylmethyl)-1,2,3,4-tetrahydroquinazolin-6-yl)morpholine-2,4-dicarboxamide]",106,107,101
"CC(C)n1c(=O)n(CC2CCOC2)c(=O)c2cc(NC(=O)N3CCO[C@@H](C(=O)Nc4ccc(C#N)c(Cl)c4)C3)c(F)cc21 (stereo partly drawn) [Example 335, (2R)—N^2-(3-chloro-4-cyanophenyl)-N^4-(7-fluoro-1-isopropyl-2,4-dioxo-3-(tetrahydrofuran-3-ylmethyl)-1,2,3,4-tetrahydroquinazolin-6-yl)morpholine-2,4-dicarboxamide]",106,108,101

# The next lines start with the values.
inhibition at 3 µM (RORγt [1]) [%],inhibition at 1 µM (RORγt [2]) [%],inhibition at 1 µM (RORγt [3]) [%],Compound
103,95,101,"CC(C)n1c(=O)n(CC2CC2)c(=O)c2cc(NC(=O)N3CCC[C@@H](NC(=O)c4ccc(CNC(=O)OC(C)(C)C)cc4)C3)c(F)cc21 [Example 319, tert-Butyl (4-(((3R)-1-((3-(cyclopropylmethyl)-7-fluoro-1-isopropyl-2,4-dioxo-1,2,3,4-tetrahydroquinazolin-6-yl)carbamoyl)piperidin-3-yl)carbamoyl)benzyl)carbamate]"
101,105,101,"COC(=O)NCc1ccc(C(=O)N[C@@H]2CCCN(C(=O)Nc3cc4c(=O)n(CC5CC5)c(=O)n(C(C)C)c4cc3F)C2)cc1 [Example 321, methyl (4-(((3R)-1-((3-(cyclopropylmethyl)-7-fluoro-1-isopropyl-2,4-dioxo-1,2,3,4-tetrahydroquinazolin-6-yl)carbamoyl)piperidin-3-yl)carbamoyl)benzyl)carbamate]"
103,108,102,"CC(C)n1c(=O)n(CC2CC2)c(=O)c2cc(NC(=O)N3CCC[C@@H](N4Cc5ccc(C#N)cc5C4=O)C3)c(F)cc21 [Example 323, (3R)-3-(6-cyano-1-oxo-1,3-dihydro-2H-isoindol-2-yl)-N-(3-(cyclopropylmethyl)-7-fluoro-1-isopropyl-2,4-dioxo-1,2,3,4-tetrahydroquinazolin-6-yl)piperidine-1-carboxamide]"
103,106,102,"CC(C)n1c(=O)n(CC2CC2)c(=O)c2cc(NC(=O)N3CCC[C@@H](n4cnc5cc(C#N)ccc5c4=O)C3)c(F)cc21 [Example 324, (3R)-3-(7-cyano-4-oxoquinazoline-3(4H)-yl)-N-(3-(cyclopropylmethyl)-7-fluoro-1-isopropyl-2,4-dioxo-1,2,3,4-tetrahydroquinazolin-6-yl)piperidine-1-carboxamide]"
106,106,102,"CC(C)n1c(=O)n(CC2CC2)c(=O)c2cc(NC(=O)N3CCC[C@@H](N4Cc5ccc(Cl)cc5C4=O)C3)c(F)cc21 [Example 336, (3R)-3-(6-chloro-1-oxo-1,3-dihydro-2H-isoindol-2-yl)-N-(3-(cyclopropylmethyl)-7-fluoro-1-isopropyl-2,4-dioxo-1,2,3,4-tetrahydroquinazolin-6-yl)piperidine-1-carboxamide]"
